# In patent US10213451B2, “Methods and compounds for modulating the secretion or expression of adhesion proteins or angiopoietins of cells” (PACIFIC ARROW LIMITED, priority 2004, dated 2019):
# Values joined by “and” are separate entries in the source; they are usually repeats but may differ in a detail not shown here. Identical values can stand only once. Like-named read-outs stand apart in the source and are kept apart here.
# How the values were obtained:
# [1] = test system: tumor growth; experiment: MTT anticancer activity of Y, X and hydrolysis products (FIG. 4C); assay type: cell-based; details: for IC50: read-out: IC50, inhibits tumor growth / anticancer activity
# In short: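 Tumour cell lines seeded 24 h beforehand (10,000–40,000/well by line), then exposed to drug for 48 h (HepG2, U2OS 72 h; MCF-7 96 h). MTT 0.5 mg/mL added for 1 h, formazan dissolved in DMSO, OD 490 nm. % growth relative to pre-treatment (T0) and control; % cytotoxicity used when TD<T0.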
# [2] = test system: thrombospondin in ES2 cells; experiment: Microarray gene expression, Table 15; assay type: cell-based, human
# Method: Y/D is the ratio (in folds) of gene expression in cells treated with compound Y as compared with those of the no drug control (D),
# YM/D is the ratio of gene expression in cells treated with compound YM (ACH-Y, Y without sugar moiety) compared with those of the no drug control (D)
# Cell culture and drug-treatment.: ES2 cells were seeded in a T-25 flask with 4.5 million cells per flask for 24 hours. Cell culture was replaced with fresh medium with xanifolia-Y (Y) or DMSO no drug control (D) for 24 hours. Cells were then harvested for RNA isolation. Three experiments were done.
# RNA extraction, labeling, hybridization, and data analysis. RNA was extracted from tumor cells using the Qiagen RNeasy Kit. RNA quality and quantity was checked by the Agilent BioAnalyzer and the NanoDrop® ND-1000 spectrophotometer respectively before further manipulation. The first and second cDNA strands were synthesized from 20 ng of total RNA using the Affymetrix T7 oligo(dT) primer protocol and kit for the two-cycle amplification. To produce amplified biotin-labeled-cRNA, the cDNA was […] by in vitro transcription using the MegaScript kit from Ambion. 15.0 μg of the labeled cRNA was fragmented and re-checked for concentration using the NanoDrop® ND-1000 spectrophotometer. A hybridization cocktail containing Affymetrix spike-in controls and fragmented labeled cRNA was loaded onto the Human U133 Plus 2.0 GeneChip® oligonucleotide array. The Affymetrix array (Affymetrix, Inc. Santa Clara, Calif.) is comprised of over 1,300,000 unique oligonucleotide features that represent greater than 38,500 well-substantiated human genes. The array was hybridized for 16 hours at 45° C. with rotation at 60 rpm then washed and stained with a strepavidin, R-phycoerythrin conjugate stain on the Affymetrix Fluidicis Station 450. Signal amplification was done using biotinylated antistreptavidin. The arrays were scanned using the GeneChip® 3000 confocal laser scanner with autoloader. The images were analyzed and quality control metrics recorded using Affymetrix GCOS software version 1.4. Lastly, the expression value for each gene was calculated using dChip PM-only model based or Plier algorithm.
# Pairwise comparisons were made as follows: Treated vs. Control (Y vs. D), Modified Drug vs Control (YM/ACY-H vs. D) and Treated vs. Modified Drug (Y vs. YM/ACH-Y) Cel files analyzed using the Bioconductor package of R Statistical programming. Limma analysis generated a reasonable number of changing genes between the samples.
# The raw data in the .CEL files were normalized by the GCRMA method (robust multi-array analysis). It is implemented in Bioconductor (http://www.bioconductor.org/). The raw signal intensity data were normalized, background corrected and summarized based on certain statistical models, and an expression value, in log 2-scale, is obtained per chip per probe set. Then the null hypothesis was tested that there's no significant changes in gene expression between the treatment pairs. This was done by LIMMA and is also implemented in Bioconductor. It uses empirical Bayes method to estimate the variance in gene expression. One comparison was made, namely, High Grade vs. Low Grade. The raw p-values were adjusted by the Benjamnin-Hochberg method for false discovery rate (FDR) control. All data sets contained a significant number of genes with a p-value less than 0.05, which is that the probability that a gene is NOT differential expressed (false positive) is 1:20.
# [3] = test system: ES2(ovarian) cells; experiment: MTT assay ES2; assay type: cell-based, human; details: for viable cells by MTT assay: ES2, 10 ug/ml
# [4] = Homo sapiens, ES-2, ES2 cells, read-out: IC50
compound,measurement,setting,value
"C/C=C(/C)C(=O)O[C@H]1[C@H](OC(=O)/C(C)=C\C)[C@@]2(CO)C(CC1(C)C)C1=CCC3[C@@]4(C)CC[C@H](O[C@@H]5OC(C(=O)O)[C@@H](O)C(O[C@@H]6O[C@@H](CO)C(O)C6O)C5O[C@@H]5OC(CO)[C@H](O)C(O)C5O)C(C)(C)C4CC[C@@]3(C)[C@]1(C)[C@@H](O)[C@H]2O (stereo partly drawn) [Xanifolia-Y, 3-O-[β-D-galactopyranosyl (1→2)]-α-L-arabinofuranosy (1→3)-β-D-glucuronopyranosyl-21,22-O-diangeloyl-3β, 15α, 16α, 21β, 22α, 28-hexahydroxyolean-12-ene]",IC50,[1]; FIG. 4C,4 µg/mL
same,IC50,[1],1.5 to 4.5 µg/mL
same,"THBS1 thrombospondin 1, gene expression ratio to no drug control (D)",[2]; probe 201108_s_at,−1.7 folds
same,"THBS1 thrombospondin 1, gene expression ratio to no drug control (D)",[2]; probe 201109_s_at,−2.0 folds
same,"THBS1 thrombospondin 1, gene expression ratio to no drug control (D)",[2]; probe 201110_s_at,−1.8 folds
same,growth of cells compared to the DMSO control (MTT),"[3]; ES2, 10 ug/ml (F13)",89%
same,viable cells by MTT assay,[3]; 7 hours,93%
same,viable cells by MTT assay,[3]; 18 hours,Over 95%
same,viable cells by MTT assay,[3]; 24 hours,85% and 87%
same,IC50,[3]; ES2 cells,4.4 µg/mL
same,IC50,"[3]; Homo sapiens, ES2, Clear cell, read-out: IC50",4.4 µM
same,IC50,"[3]; Homo sapiens, ES-2, ES2 cells, combined with Paclitaxel, read-out: IC50 value for Xanifolia-Y when both drugs were used",2.5 µg/mL
same,IC50,[3]; [4],5 µg/mL
C/C=C(/C)C(=O)O[C@H]1[C@H](OC(=O)/C(C)=C\C)[C@@]2(CO)C(CC1(C)C)C1=CCC3[C@@]4(C)CC[C@H](O)C(C)(C)C4CC[C@@]3(C)[C@]1(C)[C@@H](O)[C@H]2O (some centres unmarked) [ACH-Y],MTT activities of hydrolysed products of compound Y,"[1]; FIG. 4C, 4D",very weak
same,IC50,[1]; FIG. 4C,9.5 µg/mL
same,anticancer activity retained after removal of sugars from Y,[1]; relative to Y,40%
same,"THBS1 thrombospondin 1, gene expression ratio to no drug control (D)",[2]; probe 201108_s_at,−2.2 folds
same,"THBS1 thrombospondin 1, gene expression ratio to no drug control (D)",[2]; probe 201109_s_at,−6.2 folds
same,"THBS1 thrombospondin 1, gene expression ratio to no drug control (D)",[2]; probe 201110_s_at,−4.5 folds
same,IC50,[3]; [4],20 µg/mL
